Experimental data from ChEMBL document CHEMBL1201862, “PubChem BioAssay data set” (2004).
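All cell lines were grown in 96-well plates and treated with compound for 48 hours. GI50 marks 50% less growth.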 Activity calls are given as the source filed them. Rule as the data show it: active = GI50 up to about 1.1 µM and inactive = higher.

Tests used:
Assay in all cases: NCI-60 cell line screen, 48 h
HCC 2998 = tested on: HCC 2998
HOP-18 = tested on: HOP-18
KM-20L2 = tested on: KM-20L2
MOLT-4 = tested on: MOLT-4
NCI-H522 = tested on: NCI-H522
SNB-78 = tested on: SNB-78
DMS-114 = tested on: DMS-114
EKVX = tested on: EKVX
SF-539 = tested on: SF-539
DMS-273 = tested on: DMS-273
HCT-116 = tested on: HCT-116
DLD-1 = tested on: DLD-1
XF498 = tested on: XF498
M14 = tested on: M14
TK-10 = tested on: TK-10
BT-549 = tested on: BT-549
T47D = tested on: T47D
MDA-N = tested on: MDA-N
DU-145 = tested on: DU-145
PC-3 = tested on: PC-3

Row | SMILES | GI50 (HCC 2998) | GI50 (HOP-18) | GI50 (KM-20L2) | GI50 (MOLT-4) | GI50 (NCI-H522) | GI50 (SNB-78) | GI50 (DMS-114) | GI50 (EKVX) | GI50 (SF-539) | GI50 (DMS-273) | GI50 (HCT-116) | GI50 (DLD-1) | GI50 (XF498) | GI50 (M14) | GI50 (TK-10) | GI50 (BT-549) | GI50 (T47D) | GI50 (MDA-N) | GI50 (DU-145) | GI50 (PC-3)
1 | CC1(C)N=C(N)N=C(N)N1c1ccc(OCCCOc2ccccc2)c(Cl)c1 | 0.315 µM (active) | 0.67 µM (active) | 0.0715 µM (active) | 0.0336 µM (active) | 0.247 µM (active) | 0.538 µM (active) | 0.076 µM (active) | 0.303 µM (active) | 0.336 µM (active) | 0.0262 µM (active) | 0.026 µM (active) | 1.51 µM (inactive) | < 0.01 µM (active) | – | – | – | – | – | – | –
2 | CC(=O)C(C(=O)C(=O)Nc1cc(Cl)c(Cl)cc1Cl)c1csc(N)n1 (configuration not stated) | > 100 µM (inactive) | – | > 100 µM (inactive) | > 100 µM (inactive) | > 100 µM (inactive) | > 100 µM (inactive) | > 100 µM (inactive) | > 100 µM (inactive) | > 100 µM (inactive) | > 100 µM (inactive) | > 100 µM (inactive) | > 100 µM (inactive) | > 100 µM (inactive) | > 100 µM (inactive) | > 100 µM (inactive) | – | – | – | – | –
3 | COc1cc(C2C(C(=O)O)=C(CO)Oc3cc4c(cc32)OCO4)cc(OC)c1OC (configuration not stated) | – | 77.1 µM (inactive) | > 100 µM (inactive) | > 100 µM (inactive) | – | > 100 µM (inactive) | > 100 µM (inactive) | > 100 µM (inactive) | – | > 100 µM (inactive) | > 100 µM (inactive) | > 100 µM (inactive) | > 100 µM (inactive) | > 100 µM (inactive) | > 100 µM (inactive) | – | – | – | – | –
4 | C=CCn1c(=O)c(C)cn(COCCO)c1=O | > 100 µM (inactive) | – | – | > 100 µM (inactive) | > 100 µM (inactive) | – | – | > 100 µM (inactive) | > 100 µM (inactive) | – | – | – | – | > 100 µM (inactive) | > 100 µM (inactive) | > 100 µM (inactive) | > 100 µM (inactive) | > 100 µM (inactive) | > 100 µM (inactive) | > 100 µM (inactive)
5 | C[C@]12CC[C@H](O)C=C1CC[C@@H]1[C@@H]2CC[C@]2(C)C(c3ccc(=O)oc3)CC[C@]12O (some centres not stated) | 0.0372 µM (active) | 0.014 µM (active) | 0.0244 µM (active) | – | 0.0125 µM (active) | 0.0163 µM (active) | – | 0.0311 µM (active) | 0.0125 µM (active) | 0.0125 µM (active) | 0.0125 µM (active) | 0.0174 µM (active) | 0.0184 µM (active) | – | – | – | – | – | – | –
6 | CN(C)c1ccc(N2C(=S)SC(=N\c3ccccc3)/C2=N/c2ccccc2)cc1 | > 100 µM (inactive) | – | – | > 10 µM (inactive) | > 100 µM (inactive) | – | – | – | – | – | > 100 µM (inactive) | – | – | > 100 µM (inactive) | – | > 100 µM (inactive) | > 100 µM (inactive) | > 100 µM (inactive) | > 100 µM (inactive) | 37.8 µM (inactive)
7 | NC(=S)N/N=C1\c2ccccc2CCC1CCC1(O)CCc2ccccc2C1=O (configuration not stated) | – | – | – | 24.5 µM (inactive) | – | – | – | 11.4 µM (inactive) | 15.3 µM (inactive) | – | 18.7 µM (inactive) | – | – | 16.4 µM (inactive) | 13.6 µM (inactive) | 16.4 µM (inactive) | 4.04 µM (inactive) | 25.2 µM (inactive) | 37.8 µM (inactive) | 31 µM (inactive)
8 | C[S+](C)([O-])=Nn1c(=O)n2n(c1=O)[C@H]1CC[C@@H]2C1 | – | – | – | > 100 µM (inactive) | > 100 µM (inactive) | – | – | > 100 µM (inactive) | > 100 µM (inactive) | – | – | – | – | > 100 µM (inactive) | > 100 µM (inactive) | – | > 100 µM (inactive) | > 100 µM (inactive) | > 100 µM (inactive) | > 100 µM (inactive)
9 | COC(=O)C1=C(OC(=O)/C=C/c2ccc(Cl)cc2)C(C(=O)OC)[C@@]2(O)[C@@H](C(=O)OC)[C@H](C)C[C@@H]1[C@@H]2C(=O)OC (some centres not stated) | – | – | – | 15.8 µM (inactive) | 6.81 µM (inactive) | – | – | 22.5 µM (inactive) | 17.6 µM (inactive) | – | 23.8 µM (inactive) | – | – | 23.2 µM (inactive) | 62.8 µM (inactive) | 21.6 µM (inactive) | 26.1 µM (inactive) | 10.4 µM (inactive) | 39.4 µM (inactive) | 20.7 µM (inactive)
10 | C=C1C(=O)OC2C1CC1OC2C(C)CCC/C(C)=C\CCC1(C)O (configuration not stated) | 20.3 µM (inactive) | 10.6 µM (inactive) | 29.7 µM (inactive) | 8.15 µM (inactive) | 8.71 µM (inactive) | 12.1 µM (inactive) | 11.6 µM (inactive) | 20.4 µM (inactive) | 16.5 µM (inactive) | 16.2 µM (inactive) | 13.5 µM (inactive) | 18.7 µM (inactive) | 12 µM (inactive) | – | – | – | – | – | – | –
11 | CC(C)c1ccccc1SCc1cc(=O)cc(CSc2ccccc2C(C)C)o1 | 30.3 µM (inactive) | – | – | 22.6 µM (inactive) | – | – | – | 19.3 µM (inactive) | – | – | – | – | – | 20.2 µM (inactive) | 17.9 µM (inactive) | – | 24 µM (inactive) | 18.8 µM (inactive) | 23.1 µM (inactive) | 13.7 µM (inactive)
12 | CCOC(=O)Oc1ccc(C(CNC(C)C)OC(=O)OCC)cc1OC(=O)OCC (configuration not stated) | > 100 µM (inactive) | – | – | 96.8 µM (inactive) | 49.9 µM (inactive) | – | – | > 100 µM (inactive) | > 100 µM (inactive) | – | > 100 µM (inactive) | – | – | > 100 µM (inactive) | > 100 µM (inactive) | > 100 µM (inactive) | > 100 µM (inactive) | > 100 µM (inactive) | > 100 µM (inactive) | > 100 µM (inactive)
13 | CCN(CC)CCCNc1ncc(C)c2[nH]c3ccncc3c12 | 8.61 µM (inactive) | – | 6.24 µM (inactive) | 2.65 µM (inactive) | 7.74 µM (inactive) | 19.1 µM (inactive) | 7.8 µM (inactive) | 16.1 µM (inactive) | 6.5 µM (inactive) | 7.26 µM (inactive) | 6.58 µM (inactive) | 31 µM (inactive) | 11.4 µM (inactive) | – | – | – | – | – | – | –
14 | COc1ccc(C(=O)/C(Br)=C/C(=O)O)cc1 | 19.2 µM (inactive) | 45.8 µM (inactive) | 29.5 µM (inactive) | 17.6 µM (inactive) | 7 µM (inactive) | – | 18.6 µM (inactive) | 37.8 µM (inactive) | – | 9.82 µM (inactive) | – | 12.6 µM (inactive) | 4.28 µM (inactive) | 26.2 µM (inactive) | 51.3 µM (inactive) | 17.9 µM (inactive) | 53.2 µM (inactive) | 20 µM (inactive) | 32 µM (inactive) | 29.7 µM (inactive)
15 | COc1cc(C2c3cc4c(cc3[C@@H](Nc3cnc5ccccc5c3)C3COC(=O)[C@H]23)OCO4)cc(OC)c1O (some centres not stated) | 0.794 µM (active) | 0.34 µM (active) | 1.47 µM (inactive) | < 0.01 µM (active) | 1.03 µM (active) | 2.69 µM (inactive) | 0.277 µM (active) | 1.27 µM (inactive) | 0.168 µM (active) | 0.047 µM (active) | 0.46 µM (active) | 1.05 µM (active) | 0.474 µM (active) | – | – | – | – | – | – | –
